These results are taken from US10519152B2, “Compounds and their use in treating cancer” (AstraZeneca AB, priority 2017, dated 2019).

The target of assay [1] is T1, recombinant human Estrogen Receptor alpha ligand binding domain, residues 307-554 (ER alpha-LBD (GST)) (Homo sapiens, UniProt P03372).
T1 construct: made in house
T1 sequence (P03372 307-554): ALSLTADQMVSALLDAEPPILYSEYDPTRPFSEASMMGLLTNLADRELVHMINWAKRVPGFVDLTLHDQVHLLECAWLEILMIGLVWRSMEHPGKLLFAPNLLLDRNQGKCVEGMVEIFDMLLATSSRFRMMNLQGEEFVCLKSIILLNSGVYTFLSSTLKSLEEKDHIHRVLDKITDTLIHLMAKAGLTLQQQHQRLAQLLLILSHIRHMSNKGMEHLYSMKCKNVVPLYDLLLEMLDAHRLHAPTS
The assay can be described thus: ERα binding assay (LanthaScreen TR-FRET competition). As to conditions: TR-FRET competition with Fluormone ES2 tracer, 4 hours at room temperature; single experiment or average of two or more. For orientation: Time-resolved FRET reads energy transfer from a long-lived donor to a nearby acceptor.

The target in assay [2] is T2, Estrogen Receptor (ERα) in MCF-7 human ductal carcinoma breast cell line (Homo sapiens, UniProt P03372).
T2 construct: endogenous in cells; host or cells: MCF-7
T2 sequence (P03372 1-595): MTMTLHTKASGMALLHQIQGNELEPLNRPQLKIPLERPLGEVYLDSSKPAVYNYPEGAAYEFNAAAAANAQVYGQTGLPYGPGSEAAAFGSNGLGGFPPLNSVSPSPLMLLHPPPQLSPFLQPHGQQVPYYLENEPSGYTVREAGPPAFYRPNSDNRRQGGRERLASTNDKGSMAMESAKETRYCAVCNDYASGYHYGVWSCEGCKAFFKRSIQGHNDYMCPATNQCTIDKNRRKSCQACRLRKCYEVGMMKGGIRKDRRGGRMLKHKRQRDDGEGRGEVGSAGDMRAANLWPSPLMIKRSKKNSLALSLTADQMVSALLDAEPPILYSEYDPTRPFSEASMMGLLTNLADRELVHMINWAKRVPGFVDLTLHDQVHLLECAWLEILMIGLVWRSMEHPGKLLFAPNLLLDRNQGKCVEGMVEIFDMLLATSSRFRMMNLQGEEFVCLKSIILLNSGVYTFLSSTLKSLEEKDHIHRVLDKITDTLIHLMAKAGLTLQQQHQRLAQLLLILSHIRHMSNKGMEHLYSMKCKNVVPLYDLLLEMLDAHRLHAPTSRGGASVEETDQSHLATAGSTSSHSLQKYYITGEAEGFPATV
The assay can be described thus: MCF-7 ER degradation assay (cell based immuno-fluorescence). As to conditions: MCF-7 cells; for DC50: 18-22 hours incubation, 50% reduction of ERα expression, single experiment or average of two or more, read-out: MCF-7 ER degradation IC50. In short, it runs like this:
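MCF-7 human ductal carcinoma breast cells were seeded at 3.75×10^4 cells per mL (40 μL per well) in 384 well plates with phenol red free DMEM containing 2 mM L-Glutamine and 5% (v/v) Charcoal/Dextran treated foetal calf serum. After overnight culture, compounds were acoustically dispensed, incubated 18-22 hours, then cells were formaldehyde-fixed and immunostained for ERα.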

`CC(=O)O[C@@H]1C[C@@H](C(=O)NCc2ccc(-c3scnc3C)cc2)N(C(=O)[C@@H](NC(=O)COCCCCCCOc2cc(F)c([C@@H]3c4[nH]c5ccccc5c4C[C@@H](C)N3CC(C)(C)F)c(F)c2)C(C)(C)C)C1` [Example 52, (3R,5S)-1-((S)-2-(2-((6-(3,5-difluoro-4-((1R,3R)-2-(2-fluoro-2-methylpropyl)-3-methyl-2,3,4,9-tetrahydro-1H-pyrido[3,4-b]indol-1-yl)phenoxy)hexyl)oxy)acetamido)-3,3-dimethylbutanoyl)-5-((4-(4-methylthiazol-5-yl)benzyl)carbamoyl)pyrrolidin-3-yl acetate]: the IC50 (commonly the point on the concentration scale where inhibition reaches its midpoint) in assay [1] is 1.1 nM. The DC50 in assay [2] was found to be 2.1 nM.

As for `Cc1ncsc1-c1ccc(CNC(=O)[C@@H]2C[C@@H](O)CN2C(=O)[C@@H](NC(=O)CCCCN2CCN(CCOc3cc(F)c([C@@H]4c5[nH]c6ccccc6c5C[C@@H](C)N4CC(C)(C)F)c(F)c3)CC2)C(C)(C)C)cc1` [Example 102, (2S,4R)-1-((S)-2-(5-(4-(2-(3,5-difluoro-4-((1R,3R)-2-(2-fluoro-2-methylpropyl)-3-methyl-2,3,4,9-tetrahydro-1H-pyrido[3,4-b]indol-1-yl)phenoxy)ethyl)piperazin-1-yl)pentanamido)-3,3-dimethylbutanoyl)-4-hydroxy-N-(4-(4-methylthiazol-5-yl)benzyl)pyrrolidine-2-carboxamide], in assay [1], the IC50 came to 0.6 nM. Also, the DC50 in assay [2] stood at 0.9 nM.

For the compound `Cc1ncsc1-c1ccc(CNC(=O)[C@@H]2C[C@@H](O)CN2C(=O)[C@@H](NC(=O)c2ccc(COc3cc(F)c([C@@H]4c5[nH]c6ccccc6c5C[C@@H](C)N4CC(C)(C)F)c(F)c3)cc2)C(C)(C)C)cc1` [Example 36, (2S,4R)-1-((S)-2-(4-((3,5-Difluoro-4-((1R,3R)-2-(2-fluoro-2-methylpropyl)-3-methyl-2,3,4,9-tetrahydro-1H-pyrido[3,4-b]indol-1-yl)phenoxy)methyl)benzamido)-3,3-dimethylbutanoyl)-4-hydroxy-N-(4-(4-methylthiazol-5-yl)benzyl)pyrrolidine-2-carboxamide], the IC50 in assay [1] was determined as 1 nM. Besides, in assay [2], the DC50 turned out to be 1 nM.

In the case of `Cc1ncsc1-c1ccc(CNC(=O)[C@@H]2C[C@@H](O)CN2C(=O)[C@@H](NC(=O)COCCOCCOCCOc2cc(F)c([C@@H]3c4[nH]c5ccccc5c4C[C@@H](C)N3CC(C)(C)F)c(F)c2)C(C)(C)C)cc1` [Example 38, (2S,4R)-1-((S)-2-(tert-Butyl)-14-(3,5-difluoro-4-((1R,3R)-2-(2-fluoro-2-methylpropyl)-3-methyl-2,3,4,9-tetrahydro-1H-pyrido[3,4-b]indol-1-yl)phenoxy)-4-oxo-6,9,12-trioxa-3-azatetradecanoyl)-4-hydroxy-N-(4-(4-methylthiazol-5-yl)benzyl)pyrrolidine-2-carboxamide], the IC50 in assay [1] was found to be 0.7 nM. Further, in assay [2] (0.3 μM, ER degradation by fulvestrant at 0.3 μM is defined as 100%), the “ER degradation ≥ 90% at 0.3 μM” value is listed as “••”.

For `Cc1ncsc1-c1ccc([C@H](CN(C)C)NC(=O)[C@@H]2C[C@@H](O)CN2C(=O)[C@@H](NC(=O)COCCOCCOCCOc2cc(F)c([C@@H]3c4[nH]c5ccccc5c4C[C@@H](C)N3CC(C)(C)F)c(F)c2)C(C)(C)C)cc1` [Example 104, (2S,4R)-1-[(2S)-2-[[2-[2-[2-[2-[3,5-Difluoro-4-[(1R,3R)-2-(2-fluoro-2-methyl-propyl)-3-methyl-1,3,4,9-tetrahydropyrido[3,4-b]indol-1-yl]phenoxy]ethoxy]ethoxy]ethoxy]acetyl]amino]-3,3-dimethyl-butanoyl]-N-[(1R)-2-(dimethylamino)-1-[4-(4-methylthiazol-5-yl)phenyl]ethyl]-4-hydroxy-pyrrolidine-2-carboxamide], the 50% inhibitory concentration (IC50) in assay [1] was determined as 4.6 nM. The DC50 in assay [2] stood at 54 nM.
